Assay results reported in ChEMBL document CHEMBL1287691, “Pyrazole derivatives from azines of substituted phenacyl aryl/cyclohexyl sulfides and their antimycobacterial activity” (2010).
In brackets after ≈: the same amount, converted by molar mass.

These molecules were tested on Mycobacterium tuberculosis (assay: Antimycobacterial activity against Mycobacterium tuberculosis H37Rv by agar dilution method).
Format: functional
With `Clc1ccc(S/C=C(\c2ccc3ccccc3c2)n2cc(Sc3ccc(Cl)cc3)c(-c3ccc4ccccc4c3)n2)cc1` the MIC was 6.25 µg/mL (≈ 9.89 µM).
`Clc1ccc(S/C=C(/c2ccc3ccccc3c2)n2cc(Sc3ccc(Cl)cc3)c(-c3ccc4ccccc4c3)n2)cc1` gave an MIC of 12.5 µg/mL (≈ 19.8 µM).
Work on `Clc1ccc(S/C=C(/c2ccc(Cl)cc2)n2cc(Sc3ccc(Cl)cc3)c(-c3ccc(Cl)cc3)n2)cc1` yielded an MIC of 3.13 µg/mL (≈ 5.21 µM).
`Clc1ccc(S/C=C(/c2ccccc2)n2cc(Sc3ccc(Cl)cc3)c(-c3ccccc3)n2)cc1` showed an MIC greater than 25 µg/mL.
`C(/SC1CCCCC1)=C(\c1ccccc1)n1cc(SC2CCCCC2)c(-c2ccccc2)n1` showed an MIC of 12.5 µg/mL (≈ 26.3 µM).
With `Cc1ccc(/C(=C/SC2CCCCC2)n2cc(SC3CCCCC3)c(-c3ccc(C)cc3)n2)cc1` the MIC was 6.25 µg/mL (≈ 12.4 µM).
In the case of `COc1ccc(/C(=C/SC2CCCCC2)n2cc(SC3CCCCC3)c(-c3ccc(OC)cc3)n2)cc1`, the MIC is reported as 12.5 µg/mL (≈ 23.4 µM).
In the case of `O=[N+]([O-])c1ccc(/C(=C/SC2CCCCC2)n2cc(SC3CCCCC3)c(-c3ccc([N+](=O)[O-])cc3)n2)cc1`, the MIC is reported as 1.56 µg/mL (≈ 2.76 µM).
`Clc1ccc(S/C=C(\c2ccc(Cl)cc2)n2cc(Sc3ccc(Cl)cc3)c(-c3ccc(Cl)cc3)n2)cc1` showed an MIC of 1.56 µg/mL (≈ 2.6 µM).
`COc1ccc(/C(=C\Sc2ccc(Cl)cc2)n2cc(Sc3ccc(Cl)cc3)c(-c3ccc(OC)cc3)n2)cc1` showed an MIC of 6.25 µg/mL (≈ 10.6 µM).
In the case of `Clc1ccc(S/C=C(\c2ccccc2)n2cc(Sc3ccc(Cl)cc3)c(-c3ccccc3)n2)cc1`, the MIC is reported as 12.5 µg/mL (≈ 23.5 µM).
For `Cc1ccc(/C(=C\Sc2ccc(Cl)cc2)n2cc(Sc3ccc(Cl)cc3)c(-c3ccc(C)cc3)n2)cc1`, the MIC was 6.25 µg/mL (≈ 11.2 µM).
For `Cc1ccc(S/C=C(\c2ccc(Cl)cc2)n2cc(Sc3ccc(C)cc3)c(-c3ccc(Cl)cc3)n2)cc1`, the MIC was 12.5 µg/mL (≈ 22.3 µM).
`Clc1ccc(/C(=C\Sc2ccccc2)n2cc(Sc3ccccc3)c(-c3ccc(Cl)cc3)n2)cc1` was tested, and the MIC was 25 µg/mL (≈ 47 µM).
For `C(/SC1CCCCC1)=C(/c1ccccc1)n1cc(SC2CCCCC2)c(-c2ccccc2)n1`, the MIC was 6.25 µg/mL (≈ 13.2 µM).
`Cc1ccc(/C(=C\SC2CCCCC2)n2cc(SC3CCCCC3)c(-c3ccc(C)cc3)n2)cc1` showed an MIC of 3.13 µg/mL (≈ 6.23 µM).
`COc1ccc(/C(=C\SC2CCCCC2)n2cc(SC3CCCCC3)c(-c3ccc(OC)cc3)n2)cc1` gave an MIC of 3.13 µg/mL (≈ 5.85 µM).
`Clc1ccc(/C(=C\SC2CCCCC2)n2cc(SC3CCCCC3)c(-c3ccc(Cl)cc3)n2)cc1` showed an MIC of 1.56 µg/mL (≈ 2.87 µM).
Molecule `O=[N+]([O-])c1ccc(/C(=C\SC2CCCCC2)n2cc(SC3CCCCC3)c(-c3ccc([N+](=O)[O-])cc3)n2)cc1` has an MIC of 0.78 µg/mL (≈ 1.38 µM).
`Clc1ccc(/C(=C/Sc2ccccc2)n2cc(Sc3ccccc3)c(-c3ccc(Cl)cc3)n2)cc1` gave an MIC greater than 25 µg/mL.
Molecule `Cc1ccc(S/C=C(/c2ccc(Cl)cc2)n2cc(Sc3ccc(C)cc3)c(-c3ccc(Cl)cc3)n2)cc1` has an MIC of 12.5 µg/mL (≈ 22.3 µM).
`CC[C@@H](CO)NCCN[C@@H](CC)CO` [ETHAMBUTOL] gave an MIC of 1.56 µg/mL (≈ 7.64 µM).
In the case of `NNC(=O)c1ccncc1` [ISONIAZID], the MIC is reported as 0.05 µg/mL (≈ 0.365 µM).
`NC(=O)c1cnccn1` [PYRAZINAMIDE] gave an MIC of 6.25 µg/mL (≈ 50.8 µM).

These molecules were tested on Mycobacterium tuberculosis (assay: Antimycobacterial activity against Mycobacterium tuberculosis H37Rv at 6.25 ug/ml).
Format: functional
`CC(=O)/C(=N/Nc1c(C)n[nH]c1C)C(=O)O` gave an inhibition at 6.25 µg/mL of 29%.
With `COCC(=O)/C(=N/Nc1c(C)n[nH]c1C)C(=O)OC` the inhibition at 6.25 µg/mL was 28%.
